Here are results for 15 molecules from PubChem BioAssay (NCI).

Common to all, as to assay: inhibition of tumour cell growth, NCI panel, 48 h
Assay [1] has as its system NCI-H23 lung.
Assay [2] relates to HS 578T breast.
The test system of assay [3] is NCI-H226 lung.
Assay [4] relates to CAKI-1 renal.
Assay [5] relates to UACC-62 melanoma.
Assay [6] concerns UACC-257 melanoma.
In assay [7] the test system is OVCAR-8 ovarian.
The subject of assay [8] is HT29 colon.
Assay [9] concerns MDA-MB-435.
For assay [10], the system named is SW-620 colon.
Assay [11] deals with SK-MEL-28 melanoma.

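Five concentrations, 48 hours, 96-well plates. GI50 is the concentration that inhibits growth by half. TGI is the concentration that stops growth completely.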

In the case of `CC1=C(C2=C(C)C(=O)C(=O)c3cc(C)ccc32)c2ccc(C)cc2C(=O)C1=O`, the TGI was found to be 0.442 µM in [1]; 0.863 µM in assay [2]; 6.48 µM in assay [3]; 0.328 µM in assay [4]; 0.381 µM in assay [5]; 0.382 µM in assay [6]. Also, the TGI in assay [7] was found to be 0.54 µM; in [8], 0.705 µM.

Consider `CC(C)CCCC(C)[C@H]1CC[C@H]2[C@@H]3CC[C@H]4C[C@@H](CCC=C(c5cc(Cl)c(O)c(C(=O)OC(C)(C)C)c5)c5cc(Cl)c(O)c(C(=O)OC(C)(C)C)c5)CC[C@]4(C)[C@H]3CC[C@]12C` (stereo partly drawn), for which the TGI in [1], in assay [2], in assay [4], in [9], in assay [5] and in assay [10] was more than 50 µM in each case. Also, the TGI in [11] and in [8] was more than 50 µM throughout.

On to `O=C(CSc1nnc(Cc2ccccc2)o1)Nc1ccc(Cl)cc1`, for which the TGI in [1], in [3], in [4], in assay [5], in assay [10] and in [11] was more than 100 µM in each case. Also, the TGI in assay [6], in assay [7] and in [8] was more than 100 µM each time.

With `CN(C)C(=O)CC(C(=O)O)c1c[nH]c2ccccc12` (stereo not drawn), the TGI in [1], in assay [4], in assay [5], in [10], in assay [6] and in assay [7] was more than 100 µM throughout. The same molecule yielded a TGI in assay [8] of more than 100 µM.

As to `NC(=O)N/N=C(\Cc1nc2ccc(C(=O)c3ccccc3)cc2[nH]c1=O)C(=O)Nc1ccc(Br)cc1`, the TGI in [1], in assay [3], in [4], in assay [5], in assay [10] and in assay [11] was more than 100 µM throughout. In addition, the TGI in [6], in [7] and in assay [8] was more than 100 µM each time.

Regarding `Nc1nc2c(ncn2CCOC(c2ccccc2)P(=O)(O)O)c(=O)[nH]1` (stereo not drawn), the TGI in assay [1], in assay [3], in [4], in assay [5], in assay [10] and in assay [11] was more than 100 µM each time. Moreover, the TGI in [6], in [7] and in assay [8] was more than 100 µM throughout.

Take `COC(=O)[C@@H]1c2cc3c(c(O)c2[C@@H](OC)C[C@@]1(C)O)C(=O)c1c(O)cc2c(c1C3=O)OC1O[C@@]2(C)[C@H](O)[C@@H](N(C)C)[C@@H]1O`: the TGI in assay [1] came out at 1.49 µM; in assay [3] it was 0.877 µM; in assay [4], 0.749 µM; in assay [5], 0.534 µM; in assay [10], 2.21 µM; in assay [6], 1.21 µM. Moreover, the TGI in [7] was determined as 2.05 µM; in assay [8], 2 µM.

For `CN1CCN(CC(=O)Nc2ccc3ncnc(Nc4ccc(Oc5cccc(C(F)(F)F)c5)c(Cl)c4)c3c2)CC1`, the GI50 is 1.24 µM in assay [4]; 1.58 µM in [9]; 1.83 µM in assay [5]; 1.72 µM in assay [10]; 1.71 µM in assay [11]; 1.93 µM in assay [6]. The TGI in assay [4] amounted to 2.49 µM; in assay [9], 2.97 µM; in assay [5], 3.4 µM; in assay [10], 3.25 µM; in assay [11], 3.16 µM; in [6], 3.79 µM.

In the case of `Cc1cccc(-c2cc(=O)c3ccc(C)nc3[nH]2)c1`, the TGI in assay [1] was more than 37.9 µM; in assay [3] it was 26.8 µM; in assay [4] it was more than 100 µM; in assay [5] it was more than 100 µM; in [11] it was more than 100 µM; in [7], more than 100 µM. The TGI in assay [8] came out at 1.82 µM.

Turning to `CN(C)c1ccc(/C=C/c2sc3ccc4ccccc4c3[n+]2C)cc1`, in assay [4], the GI50 was 0.211 µM and the TGI was found to be 0.627 µM. In assay [7], the GI50 was 0.285 µM and the TGI came out at 1.67 µM.

As for `O=C(O)Cc1ccc(N2N=C(c3ccccc3)CC2=O)cc1`, the TGI in assay [1], in [2], in [3], in assay [4], in [5] and in assay [10] was more than 100 µM each time. Moreover, the TGI in [11], in assay [6], in assay [7] and in [8] was more than 100 µM throughout.

Take `CC(C)(C)c1cc(-c2ccc(-c3cc(C(C)(C)C)c(O)c(C(C)(C)C)c3)cc2)cc(C(C)(C)C)c1O`: the TGI in [1], in assay [3], in assay [4], in [9], in assay [5] and in assay [10] was more than 100 µM each time. Also, the TGI in [11], in assay [6], in [7] and in assay [8] was more than 100 µM each time.

Turning to `CN(C)CCNCc1c2ccccc2c(CNCCN(C)C)c2ccccc12`, the TGI in assay [1] was more than 100 µM; in assay [3], 47 µM; in [5], more than 61.6 µM; in assay [10], more than 73.6 µM; in [11], more than 100 µM; in [6], 32.5 µM. Besides, the figures for the TGI in [7] and in assay [8] were more than 100 µM and 40.6 µM, respectively.

Take `O=[N+]([O-])c1ccc(NC2OCC(O)C(O)C2O)cc1` (stereo not drawn): the TGI in assay [1], in assay [3], in assay [4], in assay [5], in assay [10] and in assay [11] was more than 100 µM in each case. For the same molecule, the TGI in assay [6], in assay [7] and in [8] was more than 100 µM throughout.

Consider `O=S(=O)(O)CCS`, for which the TGI in assay [1], in [3], in [4], in [9], in assay [5] and in assay [10] was more than 100 µM throughout. Further, the TGI in assay [11], in assay [6], in [7] and in [8] was more than 100 µM each time.
